Data on 7 compounds can be found in publication PMC3464284, “Virtual Screening as a Strategy for the Identification of Xenobiotics Disrupting Corticosteroid Action” (PLoS ONE, 2012).

Counter-ions that a name gives are not always drawn. Like-named read-outs stand apart in the source and are kept apart here.

Common to all, as to assay type: biochemical
Assay [1] addresses T1, 11β-HSD2 (Homo sapiens, UniProt P80365).
T1 construct: gene HSD11B2; stably expressed in HEK-293 cells, cell lysate
T1 sequence (P80365 1-405): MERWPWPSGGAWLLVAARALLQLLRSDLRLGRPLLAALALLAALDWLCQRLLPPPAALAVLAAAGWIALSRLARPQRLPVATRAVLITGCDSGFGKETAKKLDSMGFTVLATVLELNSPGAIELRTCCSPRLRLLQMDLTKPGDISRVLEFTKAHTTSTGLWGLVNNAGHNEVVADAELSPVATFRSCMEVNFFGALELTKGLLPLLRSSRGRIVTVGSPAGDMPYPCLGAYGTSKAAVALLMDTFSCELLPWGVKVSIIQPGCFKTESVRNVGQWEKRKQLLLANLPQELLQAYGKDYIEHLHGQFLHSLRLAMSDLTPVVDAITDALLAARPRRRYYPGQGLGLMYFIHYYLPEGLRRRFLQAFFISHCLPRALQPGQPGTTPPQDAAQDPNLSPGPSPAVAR
Briefly: radiolabeled cortisol to cortisone conversion, HEK-293 lysate. The conditions noted are these: for 11β-HSD2 activity (% of control): 20 µM, […] cortisol, […] NAD+, […]°C, […] min.

The target of assay [2] is T2, 11β-HSD1 (Homo sapiens, UniProt P28845).
T2 construct: gene HSD11B1; stably expressed in HEK-293 cells, cell lysate
T2 sequence (P28845 whole entry): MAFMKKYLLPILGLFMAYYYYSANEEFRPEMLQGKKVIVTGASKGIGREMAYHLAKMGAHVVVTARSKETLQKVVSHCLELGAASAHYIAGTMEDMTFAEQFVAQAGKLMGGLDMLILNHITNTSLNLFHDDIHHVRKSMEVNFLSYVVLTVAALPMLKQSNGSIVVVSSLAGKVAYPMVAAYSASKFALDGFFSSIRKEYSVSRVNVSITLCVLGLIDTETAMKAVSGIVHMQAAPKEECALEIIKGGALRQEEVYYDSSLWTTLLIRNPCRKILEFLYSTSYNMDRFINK
The assay can be described thus: radiolabeled cortisone to cortisol conversion, HEK-293 lysate. As to conditions: for 11β-HSD1 activity (% of control): 20 µM, […] cortisone, […] NADPH, […]°C, […] min; for remaining activity at 20 µM: read-out: 11β-HSD1 activity (% of control). From the text:
radiolabeled cortisone to cortisol conversion, HEK-293 lysate on 11β-HSD1

Assay [3] has as its target T2, 11β-HSD1. The description is as above.
Assay [4] concerns the target T1, 11β-HSD2. Briefly: radiolabeled cortisol to cortisone conversion, HEK-293 lysate.
[5] abbreviates: read-out: 11β-HSD2 activity (% of control).

In the case of `CCO[Si](CCCS)(OCC)OCC` [3-mercaptopropyl triethoxysilane], the remaining activity at 20 µM on 11β-HSD2 [1] (read-out: remaining activity at 20 μM) was 80 ± 7%.

`CC[C@H]1CN2CCc3cc(OC)c(OC)cc3[C@@H]2C[C@@H]1C[C@H]1NCCc2cc(O)c(OC)cc21` [(−) Cephaeline dihydrochloride]: the “11β-HSD2 activity (% of control)” value on 11β-HSD2 [1] is reported as 74±2. Also, at 11β-HSD1 [2], the “11β-HSD1 activity (% of control)” value came out at 100±2.

Consider `CCO[Si](CCCSSSSCCC[Si](OCC)(OCC)OCC)(OCC)OCC` [AB110873, bis[3-(triethoxysilyl)propyl] tetrasulfide], for which the “11β-HSD1 activity (% of control)” value on 11β-HSD1 [2] is 79±3.

Consider `C[C@]12CC[C@H](O)C[C@H]1CC[C@@H]1[C@@H]2CC[C@]2(C)[C@@H](C3=CC(=O)OC3)CC[C@]12O` [Digitoxigenin], for which, at 11β-HSD2 [1], the “11β-HSD2 activity (% of control)” value is 104±4. In addition, the “11β-HSD1 activity (% of control)” value on 11β-HSD1 [2] was 36±2.

For the compound `C[C@@H]1CC[C@@]2(OC1)O[C@H]1C[C@H]3[C@@H]4CC[C@H]5C[C@@H](O)CC[C@]5(C)[C@H]4CC(=O)[C@]3(C)[C@H]1[C@@H]2C` [Hecogenin], the remaining activity at 20 µM at 11β-HSD2 [1] (setting [5]) was 82 ± 2%; on 11β-HSD1 [2], 49 ± 9%.

As for `CC(C)OC(=O)C(C)(C)Oc1ccc(C(=O)c2ccc(Cl)cc2)cc1` [fenofibrate], the remaining activity at 20 µM on 11β-HSD2 [1] (setting [5]) was found to be 140 ± 40%. Moreover, it took 3.8 ± 0.3 µM to reach half-maximal inhibition on 11β-HSD1 [3] (IC50).

Consider `CC[C@@H](C(=O)[C@@H](C)[C@@H](O)[C@H](C)CCc1ccc(C)c(O)c1C(=O)O)[C@H]1O[C@](CC)([C@H]2CC[C@](O)(CC)[C@H](C)O2)C[C@@H]1C` [lasalocid], for which half-maximal inhibition at 11β-HSD2 [4] (IC50) required 14 ± 3 µM. Also, the remaining activity at 20 µM on 11β-HSD1 [2] is 84 ± 3%.
